This is an account of results in patent US7928134B2, “5-aryl-4,5-dihydro-(1H)-pyrazolines as cannabinoid CB1 receptor agonists” (Solvay Pharmaceuticals B.V., priority 2007, dated 2011).

Test [1] has as its target T1, human cannabinoid CB1 receptor (Homo sapiens, UniProt P21554).
T1 construct: expressed in transfected cells; host or cells: Chinese hamster ovary (CHO) cells, membrane preparations
Put plainly: In vitro affinity for cannabinoid-CB1 receptors ([3H]CP-55,940 radioligand binding). The note with it: membranes of CHO cells stably transfected with human CB1, read-out: receptor binding Human CB1 affinity pKi (converted). Here is the method:
In Vitro Affinity for Cannabinoid-CB1 Receptors
The affinity of the compounds of the invention for cannabinoid CB1 receptors can be determined using membrane preparations of Chinese hamster ovary (CHO) cells in which the human cannabinoid CB1 receptor is stably transfected in conjunction with [^3H]CP-55,940 as radioligand. After incubation of a freshly prepared cell membrane preparation with the [^3H]-ligand, with or without addition of one or more compounds of the invention, separation of bound and free ligand is performed by filtration over glassfiber filters. Radioactivity on the filter is measured by liquid scintillation counting.

The target in test [2] is T2, human cannabinoid CB2 receptor (Homo sapiens, UniProt P34972).
T2 construct: expressed in transfected cells; host or cells: CHO cells, membrane preparations
In words: In vitro affinity for cannabinoid-CB2 receptors ([3H]CP-55,940 radioligand binding). The note with it: membranes of CHO cells stably transfected with human CB2, read-out: receptor binding Human CB2 affinity pKi (converted). The method, then: In Vitro Affinity for Cannabinoid-CB2 Receptors
The affinity of the compounds of the invention for cannabinoid CB2 receptors can be determined using membrane preparations of CHO cells in which the human cannabinoid CB2 receptor is stably transfected in conjunction with [^3H]CP-55,940 as radioligand. After incubation of a freshly prepared cell membrane preparation with the [^3H]-ligand, with or without addition of one or more compounds of the invention, separation of bound and free ligand is performed by filtration over glassfiber filters. Radioactivity on the filter is measured by liquid scintillation counting.

Test [3] deals with T3, human CB1 receptor (Homo sapiens, UniProt P21554).
T3 construct: expressed in transfected cells; host or cells: CHO cells
In words: In vitro cannabinoid-CB1 receptor (ant)agonism ([3H]-arachidonic acid release in CHO cells). The note with it: human CB1 receptor cloned in CHO cells; for EC50: read-out: Functional CB1 assays Human CB1 agonism pEC50 (converted). The test is classed as cell-based. Here is the method:
In Vitro Cannabinoid-CB1 Receptor (Ant)Agonism
In vitro CB1 receptor antagonism/agonism can be assessed with the human CB1 receptor cloned in CHO cells. CHO cells are grown in a Dulbecco's Modified Eagle's medium (DMEM) culture medium, supplemented with 10% heat-inactivated fetal calf serum. Medium is aspirated and replaced by DMEM, without fetal calf serum, but containing [^3H]-arachidonic acid and incubated overnight in a cell culture stove (5% CO2/95% air; 37° C.; water-saturated atmosphere). During this period [^3H]-arachidonic acid is incorporated in membrane phospholipids. On the test day, medium is aspirated and cells are washed three times using 0.5 ml DMEM, containing 0.2% bovine serum albumin (BSA). CB1 agonist stimulation leads to activation of PLA2 followed by release of [^3H]-arachidonic acid into the medium. This CB1 agonist-induced release is concentration-dependently antagonized by CB1 receptor antagonists, such as for example rimonabant.

T2 sequence (P34972 whole entry): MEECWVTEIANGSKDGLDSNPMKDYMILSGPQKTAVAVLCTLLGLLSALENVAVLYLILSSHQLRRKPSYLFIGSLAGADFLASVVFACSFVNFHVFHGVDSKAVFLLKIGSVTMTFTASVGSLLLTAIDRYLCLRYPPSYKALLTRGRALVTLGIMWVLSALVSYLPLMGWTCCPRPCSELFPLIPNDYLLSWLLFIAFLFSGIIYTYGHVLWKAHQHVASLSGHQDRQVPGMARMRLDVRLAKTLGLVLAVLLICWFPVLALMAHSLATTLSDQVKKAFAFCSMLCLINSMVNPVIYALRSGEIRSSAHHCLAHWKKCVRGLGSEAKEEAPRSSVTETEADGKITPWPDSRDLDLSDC
T3 sequence (P21554 whole entry): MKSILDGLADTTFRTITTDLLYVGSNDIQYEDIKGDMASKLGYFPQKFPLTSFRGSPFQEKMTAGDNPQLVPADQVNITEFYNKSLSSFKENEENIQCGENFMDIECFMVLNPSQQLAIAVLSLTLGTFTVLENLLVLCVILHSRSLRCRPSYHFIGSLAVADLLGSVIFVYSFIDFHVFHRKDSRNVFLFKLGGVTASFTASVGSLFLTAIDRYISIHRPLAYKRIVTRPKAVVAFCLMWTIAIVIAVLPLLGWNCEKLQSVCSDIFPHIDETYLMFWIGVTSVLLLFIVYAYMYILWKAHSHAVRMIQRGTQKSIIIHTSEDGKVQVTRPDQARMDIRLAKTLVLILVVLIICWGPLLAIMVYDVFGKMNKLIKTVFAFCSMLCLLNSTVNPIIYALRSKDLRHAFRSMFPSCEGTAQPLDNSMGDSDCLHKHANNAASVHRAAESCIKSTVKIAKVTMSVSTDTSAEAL
T1 sequence (P21554 whole entry): as above

For the compound `CCCCCN1N=C(C(=O)NC(C)(C)c2ccc(F)cc2)CC1c1ccccc1` (stereo not drawn) [Compound 105, N-(1-(4-fluorophenyl)-1-methyl-ethyl)-1-(n-pentyl)-5-phenyl-4,5-dihydro-(1H)-pyrazole-3-carboxamide], the results for the Ki in test [1] and in test [2] were 15.8 nM and 126 nM, respectively. Further, the EC50 in test [3] is 1.58 nM.
Consider `CCCCCN1N=C(C(=O)NCc2cccnc2)CC1c1ccccc1` (stereo not drawn) [Compound 7, N-(Pyridin-3-ylmethyl)-1-(n-pentyl)-5-phenyl-4,5-dihydro-(1H)-pyrazole-3-carboxamide], for which the Ki in test [1] is 126 nM; in test [2], 501 nM. In addition, in test [3], the EC50 was 631 nM.
Consider `CCCCN1N=C(C(=O)NC(C)(C)c2ccccc2)[C@@H](C)[C@@H]1c1ccccc1` (relative stereo) [Compound 37, N-(1-Phenyl-1-methyl-ethyl)-1-(n-butyl)-trans-4-methyl-5-phenyl-4,5-dihydro-(1H)-pyrazole-3-carboxamide], for which the figures for the Ki in test [1] and in test [2] were 15.8 nM and 100 nM, respectively. Also, the EC50 in test [3] is 7.94 nM.
Turning to `CCCCCN1N=C(C(=O)Nc2cccc3ccccc23)CC1c1ccccc1` (stereo not drawn) [Compound 4, N-(Napht-1-yl)-1-(n-pentyl)-5-phenyl-4,5-dihydro-(1H)-pyrazole-3-carboxamide], the Ki in test [1] was 31.6 nM; in test [2] it was 79.4 nM. In test [3], the EC50 is 39.8 nM.
Regarding `CCCCCN1N=C(C(=O)NC2CC3CCC2C3)CC1c1ccccc1` (stereo not drawn) [Compound 12, N-(Exo-bicyclo[2.2.1]hept-2-yl)-1-(n-pentyl)-5-phenyl-4,5-dihydro-(1H)-pyrazole-3-carboxamide], the Ki in test [1] was 79.4 nM; in test [2], 39.8 nM. In addition, the EC50 in test [3] is 39.8 nM.
For the compound `CC(C)(NC(=O)C1=NN(CC2CCCCC2)C(c2ccccc2)C1)c1ccc(F)cc1` (stereo not drawn) [Compound 108, N-[1-(4-fluorophenyl)-1-methyl-ethyl]-1-cyclohexylmethyl-5-phenyl-4,5-dihydro-(1H)-pyrazole-3-carboxamide], the results for the Ki in test [1] and in test [2] were 25.1 nM and 31.6 nM, respectively. In addition, the EC50 in test [3] is 15.8 nM.
Regarding `CCCCN1N=C(C(=O)N[C@H]2C[C@H]3CC[C@]2(C)C3(C)C)CC1c1ccccc1` (stereo partly drawn) [Compound 103, N-[endo-(1R,2S,4R)-1,7,7-trimethylbicyclo[2.2.1]hept-2-yl]-1-(n-butyl)-5-phenyl-4,5-dihydro-(1H)-pyrazole-3-carboxamide], the Ki in test [1] was 79.4 nM; in test [2], 25.1 nM. Besides, in test [3], the EC50 is 31.6 nM.
For `CCCCCN1N=C(C(=O)N[C@H]2C[C@H]3CC[C@]2(C)C3(C)C)CC1c1ccccc1F` (stereo partly drawn) [Compound 101, N-[endo-(1R,2S,4R)-1,7,7-trimethylbicyclo[2.2.1]hept-2-yl]-1-(n-pentyl)-5-(2-fluorophenyl)-4,5-dihydro-(1H)-pyrazole-3-carboxamide], the Ki in test [1] is 6.31 nM; in test [2], 7.94 nM. The EC50 in test [3] was 6.31 nM.
Consider `CC(C)CN1N=C(C(=O)N[C@H]2C[C@H]3CC[C@]2(C)C3(C)C)CC1c1ccccc1` (stereo partly drawn) [Compound 110, N-[endo-(1R,2S,4R)-1,7,7-trimethylbicyclo[2.2.1]hept-2-yl]-1-isobutyl-5-phenyl-4,5-dihydro-(1H)-pyrazole-3-carboxamide], for which the Ki in test [1] and in test [2] was 50.1 nM each time. Further, in test [3], the EC50 is 316 nM.
With `CCCCCN1N=C(C(=O)N[C@H]2C[C@H]3CC[C@]2(C)C3(C)C)CC1c1ccccc1` (stereo partly drawn) [Compound 104, N-[endo-(1R,2S,4R)-1,7,7-trimethylbicyclo[2.2.1]hept-2-yl]-1-(n-pentyl)-5-phenyl-4,5-dihydro-(1H)-pyrazole-3-carboxamide], the Ki in test [1] was 6.31 nM; in test [2], 25.1 nM. The EC50 in test [3] is 3.16 nM.
On to `CCCCCN1N=C(C(=O)NC2C3CC4CC(C3)CC2C4)CC1c1ccccc1` (stereo not drawn) [Compound 1, N-(Adamant-2-yl)-1-(n-pentyl)-5-phenyl-4,5-dihydro-(1H)-pyrazole-3-carboxamide], for which the Ki is 7.94 nM in test [1] and 5.01 nM in test [2]. Moreover, the “Functional CB1 assays Human CB1 agonism pEC50” value in test [3] was 8.1.
Regarding `CCCCN1N=C(C(=O)NC(C)(C)c2ccccc2)CC1c1ccccc1` (stereo not drawn) [Compound 102, N-(1-phenyl-1-methyl-ethyl)-1-(n-butyl)-5-phenyl-4,5-dihydro-(1H)-pyrazole-3-carboxamide], the Ki in test [1] and in test [2] was 39.8 nM in each case. Also, the EC50 in test [3] is 100 nM.
With `CCCCCN1N=C(C(=O)NC(C)(C)c2ccccc2)CC1c1ccccn1` (stereo not drawn) [Compound 32, N-(1-Phenyl-1-methyl-ethyl)-1-(n-pentyl)-5-(pyrid-2-yl)-4,5-dihydro-(1H)-pyrazole-3-carboxamide], the Ki in test [1] is 7.94 nM; in test [2] it was 10 nM. Also, in test [3], the EC50 is 39.8 nM.
For `CCCCCN1N=C(C(=O)NC23CC4CC(CC(C4)C2)C3)CC1c1ccccc1` (stereo not drawn) [Compound 27, N-(Adamantyl)-1-(n-pentyl)-5-phenyl-4,5-dihydro-(1H)-pyrazole-3-carboxamide] the same measures were 15.8 nM, 7.94 nM and 12.6 nM.
In the case of `CCCCCN1N=C(C(=O)NC(C)(C)c2ccccc2)CC1c1ccccc1` (stereo not drawn) [Compound 28, N-(1-Phenyl-1-methyl-ethyl)-1-(n-pentyl)-5-phenyl-4,5-dihydro-(1H)-pyrazole-3-carboxamide], the Ki in test [1] is 6.31 nM; in test [2] it was 100 nM. Further, the EC50 in test [3] is 7.94 nM.
For `CCCCCN1N=C(C(=O)NC(C)c2ccccc2)CC1c1ccccc1` (mixture of isomers) [Compound 14, N-(1-Phenyl-ethyl)-1-(n-pentyl)-5-phenyl-4,5-dihydro-(1H)-pyrazole-3-carboxamide] the same measures were 31.6 nM, 251 nM and 501 nM.
For `CCCCCN1N=C(C(=O)NCc2cccc(C(F)(F)F)c2)CC1c1ccccc1` (racemic) [Compound 22], the Ki in test [1] was 63.1 nM; in test [2], 316 nM. Moreover, the EC50 in test [3] is 79.4 nM.
